Data reported in US9334246B2, “Substituted triazines for malaria treatment and chemoprophylaxis” (The United States of America, as represented by the …, priority 2013, dated 2016).

Columns and labels:
Assay type in all cases: cell-based, Plasmodium falciparum
P. falciparum C235 = experiment: Malaria SYBR Green Fluorescence Assay, C235 strain; settings: for C235: SYBR Green Assay
P. falciparum D6 = experiment: Malaria SYBR Green Fluorescence Assay, D6 strain; settings: for D6: SYBR Green Assay
P. falciparum W2 = experiment: Malaria SYBR Green Fluorescence Assay, W2 strain; settings: for W2: SYBR Green Assay

Compound	C235 (P. falciparum C235) [ng/mL]	D6 (P. falciparum D6) [ng/mL]	W2 (P. falciparum W2) [ng/mL]	C235 (SYBR Green Assay IC50) (P. falciparum C235) [ng/mL]	D6 (SYBR Green Assay IC50) (P. falciparum D6) [ng/mL]	W2 (SYBR Green Assay IC50) (P. falciparum W2) [ng/mL]
CC(C)(C)c1ccc(-c2nc(N3CCCNCC3)nc(C(Cl)(Cl)Cl)n2)cc1 [Cmpd 115]	360	357	242	–	–	–
CCN(CC)CCNc1nc(-c2cc(OC)cc(OC)c2)nc(C(Cl)(Cl)Cl)n1 [Cmpd 479]	–	–	–	17	38	12
FC(F)(F)c1cccc(-c2nc(NCCc3ccccn3)nc(C(Cl)(Cl)Cl)n2)c1 [Cmpd 186]	499	494	115	–	–	–
CN1CCCN(c2nc(-c3ccccc3)nc(C(Cl)(Cl)Cl)n2)CC1 [Cmpd 409]	–	–	–	119	118	43
FC(F)(F)OC1═CC═C(NC2═NC(═NC(NCCCN3CCCC3)═N2)C(Cl)(Cl)Cl)C═C1 [Compound 657]	731	535	390	–	–	–
COc1cc(OC)cc(-c2nc(NC3CC(C)(C)NC(C)(C)C3)nc(C(Cl)(Cl)Cl)n2)c1 [Cmpd 527]	–	–	–	24	26	21
CC1═CC═C(C═C1)C1═NC(═NC(═N1)C(Cl)(Cl)Cl)N1CCC(N)CC1 [Compound 623]	–	–	–	32	58	21
OCCN1CCCN(c2nc(-c3ccc(Cl)c(Cl)c3)nc(C(Cl)(Cl)Cl)n2)CC1 [Cmpd 454]	–	–	–	118	252	64
Clc1cccc(-c2nc(NCCN3CCCC3)nc(C(Cl)(Cl)Cl)n2)c1 [Cmpd 334]	15	9	2	–	–	–
CC(C)(C)c1ccc(-c2nc(NCCN3CCCC3)nc(C(Cl)(Cl)Cl)n2)cc1 [Cmpd 246]	35	48	59	–	–	–
COc1ccc(-c2nc(NCCc3ccncc3)nc(C(Cl)(Cl)Cl)n2)cc1 [Cmpd 147]	233	155	77	–	–	–
OCCN1CCCN(c2nc(-c3ccc(Cl)cc3)nc(C(Cl)(Cl)Cl)n2)CC1 [Cmpd 455]	–	–	–	118	214	65
COc1cc(OC)cc(-c2nc(NCC3(N)CCCC3)nc(C(Cl)(Cl)Cl)n2)c1 [Cmpd 530]	–	–	–	13	13	14
CN1CCN(c2nc(-c3ccc(S(C)(=O)=O)cc3)nc(C(Cl)(Cl)Cl)n2)CC1 [Cmpd 54]	632	432	356	–	–	–
CC(C)CN1CCC(CC1)NC1═NC(═NC(═N1)C(Cl)(Cl)Cl)C1═C(C═CC═C1)[N+]([O−])═O [Compound 684]	155	225	66	–	–	–
Cc1ccc(-c2nc(NCC3(N)CC3)nc(C(Cl)(Cl)Cl)n2)cc1 [Compound 681, CC1═CC═C(C═C1)C1═NC(NCC2(N)CC2)═NC(═N1)C(Cl)(Cl)Cl]	750	593	328	–	–	–
CCN1CCCC(C1)NC1═NC(NC2═CC═C(OC(F)(F)F)C═C2)═NC(═N1)C(Cl)(Cl)Cl [Compound 655]	28	19	11	–	–	–
ClC(Cl)(Cl)c1nc(NCCc2ccncc2)nc(-c2ccc3ccccc3c2)n1 [Cmpd 230]	212	246	59	–	–	–
COc1cccc(-c2nc(NCCC3CCCN3C)nc(C(Cl)(Cl)Cl)n2)c1 (stereo not drawn) [Cmpd 236]	60	52	50	–	–	–
COc1cc(OC)cc(-c2nc(NCC(C)(C)N)nc(C(Cl)(Cl)Cl)n2)c1 [Cmpd 481]	–	–	–	17	35	12
CSc1ccc(-c2nc(NCC3CCN(C(C)C)CC3)nc(C(Cl)(Cl)Cl)n2)cc1 [Cmpd 490]	–	–	–	67	91	49
CC(C)(N)CNc1nc(Nc2ccc(OC(F)(F)F)cc2)nc(C(Cl)(Cl)Cl)n1 [Cmpd 296]	460	302	318	–	–	–
OCCN1CCN(c2nc(-c3ccc4ccccc4c3)nc(C(Cl)(Cl)Cl)n2)CC1 [Cmpd 305]	68	35	23	–	–	–
CN1CCN(c2nc(-c3ccc(F)cc3)nc(C(Cl)(Cl)Cl)n2)CC1 [Cmpd 390]	–	–	–	567	495	143

Compound	C235 (P. falciparum C235) [ng/mL]	D6 (P. falciparum D6) [ng/mL]	W2 (P. falciparum W2) [ng/mL]	C235 (SYBR Green Assay IC50) (P. falciparum C235) [ng/mL]	D6 (SYBR Green Assay IC50) (P. falciparum D6) [ng/mL]	W2 (SYBR Green Assay IC50) (P. falciparum W2) [ng/mL]
COc1ccc(-c2nc(NCCCN(C)C)nc(C(Cl)(Cl)Cl)n2)cc1OC [Cmpd 450]	–	–	–	252	239	91
CN1CCCN(c2nc(-c3ccccc3[N+](=O)[O-])nc(C(Cl)(Cl)Cl)n2)CC1 [Cmpd 548]	–	–	–	70	69	53
NC1CCN(c2nc(-c3cccc(Cl)c3)nc(C(Cl)(Cl)Cl)n2)CC1 [Compound 633, NC1CCN(CC1)C1═NC(═NC(═N1)C(Cl)(Cl)Cl)C1═CC(Cl)═CC═C1]	–	–	–	10	10	8
NC1CCN(c2nc(-c3ccccc3[N+](=O)[O-])nc(C(Cl)(Cl)Cl)n2)CC1 [Compound 632, NC1CCN(CC1)C1═NC(═NC(═N1)C(Cl)(Cl)Cl)C1═C(C═CC═C1)[N+]([O−])═O]	–	–	–	58	64	40
CC1(C)CC(Nc2nc(-c3ccc(F)cc3)nc(C(Cl)(Cl)Cl)n2)CC(C)(C)N1 [Cmpd 391]	–	–	–	46	43	19
ClC(Cl)(Cl)c1nc(-c2ccc(-c3ccccc3)cc2)nc(N2CCCNCC2)n1 [Cmpd 198]	70	64	40	–	–	–
COc1cccc(-c2nc(NCCc3ccncc3)nc(C(Cl)(Cl)Cl)n2)c1 [Cmpd 151]	549	346	133	–	–	–
CC1(C)CC(Nc2nc(-c3ccc(C(Cl)(Cl)Cl)cc3)nc(C(Cl)(Cl)Cl)n2)CC(C)(C)N1 [Cmpd 325]	269	123	82	–	–	–
CCN1CCC(CNc2nc(-c3cccc(Cl)c3)nc(C(Cl)(Cl)Cl)n2)CC1 [Cmpd 339]	41	34	14	–	–	–
COc1ccc(-c2nc(NCc3ccccn3)nc(C(Cl)(Cl)Cl)n2)cc1 [Cmpd 168]	898	755	338	–	–	–
COc1ccc(-c2nc(NCCc3ccccn3)nc(C(Cl)(Cl)Cl)n2)cc1 [Cmpd 185]	244	185	63	–	–	–
Cc1ccc(-c2nc(N3CCCN(CCO)CC3)nc(C(Cl)(Cl)Cl)n2)cc1 [Cmpd 453]	–	–	–	112	173	43
COc1cc(OC)cc(-c2nc(N3CCCNCC3)nc(C(Cl)(Cl)Cl)n2)c1 [Cmpd 525]	–	–	–	41	43	33
CN1CCCC1CCNc1nc(Nc2ccc(OC(F)(F)F)cc2)nc(C(Cl)(Cl)Cl)n1 (stereo not drawn) [Cmpd 295]	23	10	10	–	–	–
NC1CCN(CC1)C1═NC(═NC(═N1)C(Cl)(Cl)Cl)C1═CC═C(Cl)C(Cl)═C1 [Compound 622]	–	–	–	59	74	36
CC(C)CN1CCC(Nc2nc(-c3ccc(Cl)cc3)nc(C(Cl)(Cl)Cl)n2)CC1 [Compound 693, CC(C)CN1CCC(CC1)NC1═NC(═NC(═N1)C(Cl)(Cl)Cl)C1═CC═C(Cl)C═C1]	69	37	29	–	–	–
CC(C)(C)c1ccc(cc1)c2nc(NCc3cccc(CN4CCCC4)c3)nc(n2)C(Cl)(Cl)Cl [Compound 735]	257.5	207.4	60.65	–	–	–
Cc1ccc(-c2nc(N3CCCN(C)CC3)nc(C(Cl)(Cl)Cl)n2)cc1 [Cmpd 112]	209	168	107	–	–	–
NC1CCN(c2nc(-c3cccc(C(F)(F)F)c3)nc(C(Cl)(Cl)Cl)n2)CC1 [Compound 625, NC1CCN(CC1)C1═NC(═NC(═N1)C1═CC═CC(═C1)C(F)(F)F)C(Cl)(Cl)Cl]	–	–	–	20	47	12
OCCN1CCN(c2nc(-c3ccc(-c4ccccc4)cc3)nc(C(Cl)(Cl)Cl)n2)CC1 [Cmpd 308]	126	52	24	–	–	–
CN(Cc1ccccc1-c1cccnc1)c1nc(-c2ccc(S(C)(=O)=O)cc2)nc(C(Cl)(Cl)Cl)n1 [Cmpd 129]	233	170	102	–	–	–
COc1cc(OC)cc(-c2nc(NCCCN3CCCC3)nc(C(Cl)(Cl)Cl)n2)c1 [Cmpd 477]	–	–	–	41	77	23
COc1ccc(-c2nc(NCC3(N)CCOCC3)nc(C(Cl)(Cl)Cl)n2)cc1OC [Cmpd 319]	34	16	10	–	–	–
